Data on 1 compound can be found in patent US20220133729A1, “COMPOSITIONS AND METHODS FOR TREATING BASAL FOREBRAIN DISEASE” (EIP Pharma, Inc., priority 2019, published 2022).

For one test, the system named is subjects with DLB. Briefly: Phase 2 randomized, double-blind, placebo-controlled study of neflamapimod in subjects with DLB. It is filed as in vivo, human. To be noted: DLB patients. The source says:
A Phase 2, multi-center, randomized, double-blind, placebo-controlled study is run of neflamapimod versus matching placebo (randomized 1:1) administered with food for 16 weeks in subjects with DLB. The primary objective is to evaluate the effect of neflamapimod on cognitive function as assessed in a study-specific COGSTATE Neuropsychological Test Battery (NTB). Secondary endpoints include the Clinical Dementia Rating Scale-Sum of Boxes (CDR-SB), Mini-Mental State Examination (MMSE), Neuropsychiatric Inventory (NPI-10), Timed Up and Go Test, and electroencephalogram (EEG) as a potential biomarker for DLB.
Neflamapimod 40 mg capsules are administered orally, BID or TID with food for 16 weeks; subjects will follow the BID regimen if weighing <80 kg or the TID regimen if weighing ≥80 kg. A placebo comparator is 40 mg matching placebo capsules administered orally, BID or TID with food for 16 weeks; subjects will follow the BID regimen if weighing <80 kg or the TID regimen if weighing ≥80 kg.
A primary outcome measure is a composite score of a study-specific COGSTATE Neurological Test Battery (NTB) including the COGSTATE Letter Fluency Test and Category Fluency Test at 16 weeks. A change from Baseline to Week 16 in the composite score of a study-specific Cog-state Neurological Test Battery (NTB), including assessments of attention, executive function, and visuospatial function in neflamapimod treated-subjects as compared to the placebo-treated subjects, are analyzed using the Mixed Model Repeated Measures (MMRM) analysis method. The following six tests are included in the composite: (1) COGSTATE Detection test (DET), (2) COGSTATE Identification test (IDN), (3) COGSTATE One Card Learning test (OCL), (4) COGSTATE One Back test (ONB), (5) Letter Fluency Test, (6) Category Fluency Test (CFT). Each score on the individual tests will be converted to a z-score, and then a total z-score will be calculated, in which each test is weighted equally. The change in total z-score in neflamapimod vs. placebo-recipients is analyzed. […]

Another test relates to Ts2 mice. Briefly: Ts2 mice treated 28 days with neflamapimod; medial septal nucleus ChAT+ neurons quantitated. To be noted: 3 mg/kg twice-daily. The class given is in vivo. As for the experimental part: Wild-type (WT) or Ts2 mice treated for 28 days, twice-daily, with vehicle (1% PluronicF108) or 3 mg/kg neflamapimod in vehicle (n=8-10 per group; 1:1 female/male). Treatment initiated at 4.7-6.4 months of age, when cholinergic neuronal loss is developing in Ts2 mice. Cortical Rab5+ endosomal number and size, and medial septal nucleus (MSN) cholineacetyltransferase (ChAT)+ neurons quantitated.

As to `O=c1ncn2nc(Sc3ccc(F)cc3F)ccc2c1-c1c(Cl)cccc1Cl` [neflamapimod], in the test with subjects with DLB (40 mg TID dosing regimen, increase represents improvement, p=0.033 vs placebo), the “Mean change from baseline to Week 8, MMSE” value is “+1.07”. Moreover, the “Mean change from baseline to Week 4, Letter Fluency Test (LFT)” value in the test with subjects with DLB (40 mg capsules BID or TID, increase represents improvement, p=0.027 vs placebo, preliminary assessment) is given as “+3.0”. Moreover, in the test on subjects with DLB (40 mg capsules BID or TID, reduction represents improvement, p=0.031 vs placebo, preliminary assessment), the “Mean change from baseline to Week 4, COGSTATE Detection test (DET)” value is listed as −0.024. The “cholinergic neuron degeneration in the medial septal nucleus” value with Ts2 mice is “ameliorated”. Besides, the “morphology (size) of ChAT+ neurons in the medial septal nucleus (MSN)” value in the test with Ts2 mice (oral) is “normalizes”. For the same compound, the “ChAT-positive neuron number in the medial septal nucleus” value in the test on Ts2 mice (oral, stereological quantification) is given as “normalizes”.
